Source: patent US20250051391A1, “PEPTIDE INHIBITORS AND METHODS FOR INHIBITING PROTEIN AGGREGATION IN NEURONS AND NEURODEGENERATIVE DISEASES” (THE GOVERNING COUNCIL OF THE UNIVERSITY OF TORONTO, priority 2021, published 2025)
Ends that are not written are not given here.

Test system: rat substantia nigra dopaminergic neurons
Assay: AAV A53T a-syn preclinical rat model of PD
Assay type: in vivo
Description: Adult female Sprague-Dawley rats (250-280 g; Envigo) were pair-housed in cages with wood bedding and had access to food and water ad libitum. The animal colony was maintained in a regular 12-h light/dark cycle. All procedures were approved by the University Health Network Animal Care Committee in accordance with guidelines and regulations set by the Canadian Council on Animal Care.
Animals were secured in a stereotactic frame under isoflurane/oxygen anaesthesia and ketoprofen (5 mg/kg) analgesia. The surgical site was shaved and sterilized with iodine/betadine prior to making a 2 cm incision along the midline. The scalp was exposed and a unilateral injection targeting the SN was performed at coordinates AP−5.2 mm, ML−2 mm and DV−7.4 mm with respect to the bregma as a point of reference. For each animal, a total volume of 2 μl of virus was injected at a rate of 0.5 μl/min using a microinjection pump and 10 μl Hamilton syringe with a 26-gauge needle. For A53T groups, 1 μl (low dose) or 1.34 μl (high dose) of AAV1/2-A53T a-syn (5.1×10^12 genomic particles/ml), 0.14 μl of AAV1/2-Pdpep1.3-GFP or scramble1.3-GFP (5.1×10^12 genomic particles/ml) and 0.86 μl or 0.52 μl of sterile PBS was injected; for EV groups, 1 μl (low dose) or 1.34 μl (high dose) of AAV1/2-EV (5.1×10^12 genomic particles/ml) replaced AAV1/2-A53T. For V1S+SV2 groups, 0.58 μl of AAV1/2-V1S (1.1×10^12 genomic particles/ml), 0.58 μl of AAV1/2-SV2 (1.1×10^12 genomic particles/ml), 0.14 μl of AAV1/2-Pdpep1.3-RFP or scramble1.3-RFP (5.1×10^12 genomic particles/ml) and 0.7 μl of sterile PBS was injected; for the YFP groups, 1.16 μl of AAV1/2-YFP (1.1×10^12 genomic particles/ml), 0.14 μl of AAV1/2-Pdpep1.3-RFP or scramble1.3-RFP (5.1×10^12 genomic particles/ml) and 0.7 μl of sterile PBS was injected. At the end of virus injection, the needle remained in place for 5 minutes before gradual removal.
Spontaneous forepaw use was evaluated using the cylinder test 1 day prior to stereotactic AAV injection, at 21 days post-injection and at 41 days post-injection. Following overnight food restriction, individual rats with right paws marked black were placed into a glass cylinder in front of two mirrors and videos recorded. An observer blinded to treatment conditions later scored the videos by recording whether animals used their left or right forepaw to touch the inner glass surface upon rearing. A total of 5 min of video recording was scored and a minimum of 10 total touches was required for data inclusion (61).
Animals were uthanized by transcardial perfusion with heparinised saline under isoflurane/oxygen anaesthesia. Brains were then removed and the ventral part, including the ventral striatum, was snap frozen in liquid dry ice-cooled isopentane. A single 1 mm thick section of the ventral striatum was immediately cut, using a matrix, for high-performance liquid chromatography (HPLC) analysis of biogenic amines. The dorsal part, including the dorsal striatum, STN, and the SN, was immersion-fixed in 4% paraformaldehyde in 0.1M PBS for 2 days and cryo-protected in 30% sucrose in 0.1M PBS solution for another 3 days until the brains sank. For immunofluorescent staining, 40 μm coronal cryosections were then prepared using a sliding microtome (Leica Microsystems Inc.) and 6 series of sections were stored in cryoprotectant (30% glycerol, 30% ethylene glycol, 40% PBS) at −20° C. until use.
Immunofluorescence staining for a-syn, tyrosine hydroxylase and LAMP1 was performed by washing free-floating sections with PBS-T (0.2% Triton X-100) three times for 10 min each at room temperature. Sections were then incubated in blocking solution (1% BSA, 10% normal goat serum in PBS-T) for 1 h. After blocking, sections were incubated with primary antibodies in antibody solution (2% normal goat serum in PBS-T) overnight at RT. Sections were then washed in PBS and incubated with secondary antibodies diluted in antibody solution for 1 h in the dark at room temperature. […]

[1] = higher titer AAV-A53T a-syn, vs Scramble1.3 condition

Sequence: DEEIERQLKALG [PDpep1.3]
- forelimb asymmetry in the cylinder test (higher titer AAV-A53T a-syn, 6 weeks): comparable to controls
- dopaminergic neurodegeneration in the SN (TH+ cell counts) (higher titer AAV-A53T a-syn, 6 weeks post-injection): mitigated
- striatal levels of DOPAC [1]: restored
- striatal levels of HVA [1]: restored
- striatal levels of dopamine [1]: restored
- LAMP1-positive puncta in the SN (lower titer AAV-A53T a-syn): restored
- total a-syn positive area in the SN (lower titer AAV-A53T a-syn, vs Scramble1.3): significant reduction
- a-syn mean fluorescence intensity in cells positive for TH and GFP (rats, low titer AAV-A53T a-syn, AAV-expressed GFP peptide): 0.335±0.025 RFU
